Data taken from US11518981B2, “Methods of enhancing engraftment activity of hematopoietic stem cells” (CHILDREN'S HOSPITAL MEDICAL CENTER, priority 2017, dated 2022).

Tested on: human MPB derived CD34^+ cells
Experiment: human CD45^+ engraftment in bone marrow of NSG mice after primary transplant (1 T)
Assay type: in vivo
Details: 24 weeks post 1 T; 72-96 h LV and RV groups
Protocol: Freshly isolated CD34^+ cells were used, wherever possible, and especially for 0 h controls. In some experiments cryopreserved CD34^+ cells were thawed for 4 hrs in IMDM containing cytokines, then washed and used for experiments. […] Cells were kept in culture for a total of either 18-24 hours, 36-42 hours or 72-96 hours. For RV transduction, human CD34^+ cells were pre-stimulated for 2 days (42-48 hours) hours at a cell density of 3×10^5 cells/ml. Retronectin coated tissue culture flasks or plates were preloaded at room temperature with GALV pseudotyped RV twice for one hour each. The vector supernatant was removed and the cells were loaded into the RV loaded retronectin coated flasks. RV transduction was also performed twice 24 hours apart at an MOI ranging from 5 to 10. After total of 72-96 hours in culture, cells were harvested. LV and RV transductions were performed at 37° C. under 5% CO2 in ambient oxygen concentrations (20% 02). For some experiments, LV was added just like RV after 2 days of pre-stimulation. p38 MAPK inhibitors Birb 796 (600 nM), Vx-745 (1 μM), or LY 2228820 (500 nM) (all from Selleckchem) were supplemented to the culture media. […] Human engraftment was analyzed in bone marrow (BM), via BM aspirates performed at 6 and 12 weeks from left and right femurs. […]

Question: Which “human CD45^+ cell engraftment in the NSG BM” value does the source give for `Cc1ccc(-n2nc(C(C)(C)C)cc2NC(=O)Nc2ccc(OCCN3CCOCC3)c3ccccc23)cc1` [p38i, 1-[5-tert-butyl-2-(4-methylphenyl)pyrazol-3-yl]-3-[4-(2-morpholin-4-ylethoxy)naphthalen-1-yl]urea] here?
Answer: Its value is “improved”.
